# Laboratory results published in patent publication US11185077B2, “Attractants for rodents” (priority 2016, dated 2021).
# Test system: wild rats
# Assay: Field experiments with paired trap boxes: trap captures of wild rats
# Type: in vivo, rat
# Details: Experiment 16, 4 μg synthetic androstenone
# Text: Four field experiments were run in Vancouver B.C. to evaluate the effect of synthetic androstenone and synthetic testosterone on captures of female wild mice and rats in combination with species-specific male sex pheromone blend. Experimental replicates were set up along the interior and exterior walls of buildings as depicted in FIG. 7. Experiment 15 evaluated captures of wild mice in trap boxes baited with high-levels of androstenone; Experiment 16 evaluated captures of wild rats in traps baited with high-levels of androstenone; Experiment 17 evaluated captures of wild mice in traps baited with low-levels of testosterone; and Experiment 18 evaluated captures of wild mice in traps baited with low-levels of androstenone. Experiment 15 was run from Feb. 4, 2016 to Apr. 14, 2016. Experiment 16 was run from Feb. 26, 2016 to Sep. 19, 2016. Experiments 17 and 18 were run in parallel from Jun. 2, 2016 to Sep. 8, 2016.
# Each replicate of Experiments 15 to 18 consisted of a pair of trap boxes (Mice: PROTECTA® Mouse, Bell Laboratories Inc., Madison, Wis. 53704, USA; Rats: PROTECTA® Sidekick™; Bell Laboratories Inc., Madison, Wis. 53704), with 50-cm spacing between boxes in each pair, and at least 2 m between pairs. Each trap box contained an armed snap trap (1, Mice: Victor® Easy Set® Mouse Trap; Rats: Victor® Easy Set® Rat Trap; Woodstream Corp, Lititz, Pa. 17543, USA) baited with a cereal-based food bait and a scintillation vial (2) containing synthetic sex pheromone blends. Each box in each pair also contained a treatment stimulus that consisted of a piece of Whatman #1 filter paper (3a) that by random assignment was treated with: 4 μg of synthetic androstenone dissolved in 50 μl ether (Experiments 15 and 16); 750 μg of synthetic testosterone dissolved in 50 μl ether (Experiment 17); or 750 μg of synthetic androstenone dissolved in 50 μl ether (Experiment 18). […]
# Experiments 19 and 20 evaluated the effect of synthetic blends of progesterone and estradiol (estrogen) on captures of wild mice (Experiment 19) and wild rats (Experiment 20) in the field. […]
structure (smiles),measurement,setting,value
"C[C@]12CCC(=O)C[C@@H]1CC[C@@H]1[C@@H]2CC[C@]2(C)C=CC[C@@H]12 [androstenone, 5α-androst-16-en-3-one]",captures of juvenile and adult male rats,,no significant effect
same,captures of juvenile female rats,,no significant effect
same,captures of adult female rats vs control boxes,with food bait and male rat sex pheromone blend,significantly more
